Reference: PubChem BioAssay (NCI)
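Exposure lasted 48 hours, with cells grown in 96-well plates and compounds tested at five concentrations. TGI denotes the concentration required for complete inhibition of growth.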

Assays:
Assay in all cases: DTP human tumour cell line panel, 48 h
[1] = tested on: RXF 393 renal
[2] = tested on: COLO 205 colon
[3] = tested on: A498 renal
[4] = tested on: SF-539 CNS
[5] = tested on: SK-MEL-2 melanoma
[6] = tested on: KM20L2 colon
[7] = tested on: NCI-H226 lung
[8] = tested on: HCC-2998 colon
[9] = tested on: DMS 114 small cell lung
[10] = tested on: SNB-75 CNS
[11] = tested on: TK-10 renal
[12] = tested on: HT29 colon
[13] = tested on: IGROV1 ovarian
[14] = tested on: HL-60(TB) leukemia
[15] = tested on: OVCAR-8 ovarian
[16] = tested on: LXFL 529 NSCLC
[17] = tested on: DMS 273 small cell lung
[18] = tested on: NCI-H460 lung
[19] = tested on: CAKI-1 renal
[20] = tested on: KM12 colon
[21] = tested on: NCI-H522 lung
[22] = tested on: OVCAR-3 ovarian
[23] = tested on: LOX IMVI melanoma
[24] = tested on: HOP-62 NSCLC
[25] = tested on: 786-0 renal
[26] = tested on: MOLT-4 leukemia
[27] = tested on: HOP-92 NSCLC
[28] = tested on: SNB-19 CNS
[29] = tested on: OVCAR-5 ovarian
[30] = tested on: K-562 leukemia
[31] = tested on: DLD-1 colon
[32] = tested on: SK-OV-3 ovarian
[33] = tested on: MALME-3M melanoma
[34] = tested on: SN12C renal
[35] = tested on: RPMI-8226 leukemia
[36] = tested on: HCT-15 colon
[37] = tested on: UACC-257 melanoma
[38] = tested on: SK-MEL-28 melanoma
[39] = tested on: UO-31 renal
[40] = tested on: NCI-H23 lung
[41] = tested on: M14 melanoma
[42] = tested on: EKVX NSCLC
[43] = tested on: SF-268 CNS
[44] = tested on: SW-620 colon
[45] = tested on: A549 NSCLC
[46] = tested on: CCRF-CEM leukemia
[47] = tested on: UACC-62 melanoma
[48] = tested on: XF 498 CNS
[49] = tested on: M19-MEL melanoma
[50] = tested on: SNB-78 CNS
[51] = tested on: ACHN renal
[52] = tested on: OVCAR-4 ovarian
[53] = tested on: SF-295 CNS
[54] = tested on: SK-MEL-5 melanoma
[55] = tested on: T-47D breast
[56] = tested on: HCT-116 colon
[57] = tested on: MDA-MB-435
[58] = tested on: PC-3 prostate
[59] = tested on: U251 CNS
[60] = tested on: SR leukemia
[61] = tested on: BT-549 breast
[62] = tested on: MCF7 breast
[63] = tested on: MDA-MB-231 breast
[64] = tested on: DU-145 prostate
[65] = tested on: NCI/ADR-RES ovarian
[66] = tested on: MDA-N
[67] = tested on: HOP-18 NSCLC

Measured: TGI

Cc1cc(=O)[nH]c(CNC(=O)Cc2ccccc2)n1
not listed: [54] | [55] | [56] | [57] | [58] | [59] | [60] | [61] | [62] | [63] | [64] | [65] | [66] | [67]
> 100 µM: all other assays above

COc1ccc(C2C(Cl)C(=O)N2NC(=O)c2ccc(N)cc2)cc1OC (centres undefined)
26.6 µM: [5]
32.1 µM: [64]
29.1 µM: [37]
11.2 µM: [44]
25.6 µM: [33]
6.28 µM: [12]
3.55 µM: [23]
21.8 µM: [4]
23.5 µM: [66]
30.4 µM: [1]
26.3 µM: [54]
16 µM: [47]
9.04 µM: [35]
3.27 µM: [13]
13.1 µM: [22]
30.7 µM: [11]
34.1 µM: [45]
3.75 µM: [21]
19.1 µM: [57]
4.85 µM: [60]
38.3 µM: [7]
25.7 µM: [58] | [39]
35.2 µM: [42]
19 µM: [52]
22.6 µM: [41]
5.07 µM: [27]
18.4 µM: [53]
33.3 µM: [10]
6.84 µM: [19]
24.5 µM: [34]
4.45 µM: [46]
11.8 µM: [17]
16.5 µM: [30]
3 µM: [56]
31.5 µM: [3]
39.7 µM: [63]
15.4 µM: [31]
5.16 µM: [26] | [65]
2.3 µM: [48]
24.9 µM: [55]
19.9 µM: [8]
26.9 µM: [51]
18.3 µM: [61]
> 100 µM: [50]
8.59 µM: [25]
27.8 µM: [6]
4.54 µM: [14]
3.78 µM: [16]
30.5 µM: [28]
32.6 µM: [24]
24.7 µM: [62]
5.64 µM: [20]
16.4 µM: [15]
16.1 µM: [49]
33 µM: [32]
51.8 µM: [18]
18.8 µM: [40]
7.28 µM: [59]
30.3 µM: [2]
34.8 µM: [29]
21.3 µM: [36]
36.8 µM: [43]
17.6 µM: [38]

Cn1c(N)c(-c2c3ccccc3nc3ccccc23)c(=O)n(C)c1=O
not listed: [7] | [8] | [10] | [17] | [18] | [23] | [24] | [28] | [31] | [37] | [39] | [48] | [50] | [51] | [55] | [57] | [58] | [60] | [61] | [62] | [63] | [64] | [65] | [66]
> 100 µM: all other assays above

O=C(/N=C/c1c(O)c2ccccc2oc1=O)NC1CCCCC1
93 µM: [48]
not listed: [3] | [10] | [19] | [20] | [21] | [22] | [25] | [30] | [31] | [32] | [33] | [46] | [53] | [55] | [57] | [58] | [59] | [61] | [62] | [63] | [64] | [65] | [66] | [67]
> 100 µM: all other assays above
